Experiments:
[1] = in vitro; details: African green monkey, CC50
[2] = system: EBOV mucin-domain-deleted glycoprotein pseudotyped VSV; assay: microbe, parasite or virus in culture; assay type: cell-based, Zaire ebolavirus; details: Zaire ebolavirus, Vero, read-out: EC50 EBOV
[3] = system: BDBV mucin-domain-deleted glycoprotein pseudotyped VSV; assay: microbe, parasite or virus in culture; assay type: cell-based, Bundibugyo ebolavirus; details: Vesicular stomatitis virus, Vero, read-out: EC50 BDBV

Structure (SMILES) | CC50 [1] [nM] | EC50 [2] [nM] | EC50 [3] [nM]
O=C(CC12CC3CC(C1)CC(c1ccccc1)(C3)C2)NCC(=O)NC1CCN(Cc2ccccc2)CC1 [Example A12] | 2500 | 360 | 430
O=C(CC12CC3CC(C1)CC(c1ccccc1)(C3)C2)NCC(=O)N[C@@H]1CCN(Cc2ccccc2)C1 [Example A13] | 2300 | 320 | 320
O=C(CC12CC3CC(C1)CC(c1ccccc1)(C3)C2)NCC(=O)N1CC2CC1CN2Cc1ccccc1 (stereo not drawn) [Example A14] | 6200 | 200 | 230
O=C(N[C@H]1CCN(Cc2ccccc2)C1)C12CC3CC(C1)CC(c1ccccc1)(C3)C2 [Example A15] | > 10000 | 1700 | 2600
O=C(CNC(=O)C12CC3CC(C1)CC(c1ccccc1)(C3)C2)N1CCN(Cc2ccccc2)CC1 [Example A16] | 12900 | 110 | 350
O=C(CC12CC3CC(C1)CC(c1ccccc1)(C3)C2)NCC(=O)N1CCN(Cc2ccccc2)CC1 [Example A17] | > 10000 | 930 | 480
O=C(N[C@@H]1CCN(Cc2ccccc2)C1)C12CC3CC(C1)CC(c1ccccc1)(C3)C2 [Example A19] | 3900 | 290 | 440
O=C(N1CC2CC1CN2Cc1ccccc1)C12CC3CC(C1)CC(c1ccccc1)(C3)C2 (stereo not drawn) [Example A20] | 10600 | 490 | 410
O=C(CC12CC3CC(C1)CC(c1ccccc1)(C3)C2)N[C@@H]1CCN(Cc2ccccc2)C1 [Example A24] | 7200 | 290 | 290
CN1CCN(C(=O)C23CC4CC(C2)CC(c2ccccc2)(C4)C3)CC1 [Example A25] | > 10000 | 450 | 190
CN1CCC(N(C)C(=O)C23CC4CC(C2)CC(c2ccccc2)(C4)C3)CC1 [Example A27] | > 10000 | 280 | 140
O=C(N1CCN(Cc2ccccc2)CC1)C12CC3CC(CC1C3)C2 [Example A28] | > 10000 | > 10000 | > 10000
O=C(N1CCN(Cc2ccccc2)CC1)C12CC3CC(C1)CC(c1ccccc1)(C3)C2 [Example A29] | 5800 | 340 | 270
O=C(CC12CC3CC(C1)CC(c1ccccc1)(C3)C2)N1CCN(Cc2ccccc2)CC1 [Example A30] | 7500 | 340 | 220
O=C(C1C2CC3CC(C2)CC1C3)N1CCN(Cc2ccccc2)CC1 (stereo not drawn) [Example A31] | > 10000 | > 10000 | > 10000
O=C(CC12CC3CC(C1)CC(c1ccccc1)(C3)C2)NC1CCN(Cc2ccccc2)CC1 [Example A32] | 1600 | 200 | 260
O=C(CC12CC3CC(C1)CC(c1ccccc1)(C3)C2)N1CC2CC1CN2Cc1ccccc1 (stereo not drawn) [Example A33] | 2200 | 320 | 300
O=C(N[C@@H]1CCCN(Cc2ccccc2)C1)C12CC3CC(C1)CC(c1ccccc1)(C3)C2 [Example A34] | 1100 | 170 | 220
CN1CC(NC(=O)C23CC4CC(C2)CC(c2ccccc2)(C4)C3)C1 [Example A35] | > 10000 | 280 | 220

Structure (SMILES) | CC50 [1] [nM] | EC50 [2] [nM] | EC50 [3] [nM]
O=C(NC1CN(Cc2ccccc2)C1)C12CC3CC(C1)CC(c1ccccc1)(C3)C2 [Example A36] | 4300 | 510 | 300
CN1CC[C@@H](NC(=O)C23CC4CC(C2)CC(c2ccccc2)(C4)C3)C1 [Example A37] | > 10000 | 230 | 240
CN1CCC[C@@H](NC(=O)C23CC4CC(C2)CC(c2ccccc2)(C4)C3)C1 [Example A38] | > 10000 | 250 | 190
CN1CC(NC(=O)CC23CC4CC(C2)CC(c2ccccc2)(C4)C3)C1 [Example A39] | 19100 | 510 | 210
CN1CC[C@@H](NC(=O)C23CC4CC(C)(C2)CC(c2ccccc2)(C4)C3)C1 (stereo partly drawn) [Example A41] | 13600 | 103 | 180
CN1CC(NC(=O)C23CC4CC(C)(C2)CC(c2ccccc2)(C4)C3)C1 (stereo not drawn) [Example A42] | 13900 | 121 | 190
CC12CC3CC(C(=O)N[C@@H]4CN5CCC4CC5)(C1)CC(c1ccccc1)(C3)C2 (stereo partly drawn) [Example A44] | 11000 | 90 | 190
CN(C)CCNC(=O)C12CC3CC(C)(C1)CC(c1ccccc1)(C3)C2 (stereo not drawn) [Example A46] | 13500 | 180 | 210
CC12CC3CC(C(=O)NCCN4CCOCC4)(C1)CC(c1ccccc1)(C3)C2 (stereo not drawn) [Example A48] | 54900 | 1040 | 2000
O=C(N1CCC(NCc2ccccc2)CC1)C12CC3CC(C1)CC(c1ccccc1)(C3)C2 [Example A49, N-Benzyl-1-[(3-phenyladamantan-1-yl)carbonyl]piperidin-4-amine] | 10000 | 210 | 290
O=C(CC12CC3CC(CC(C3)C1)C2)N1CCC2(CCN(Cc3ccccc3)C2)C1 (stereo not drawn) [Example A50, 2-(Adamantan-1-yl)-1-{7-benzyl-2,7-diazaspiro[4.4]nonan-2-yl}ethan-1-one] | 54900 | 2900 | 3300
O=C(CC12CC3CC(CC(C3)C1)C2)NC1CCN(Cc2ccccc2)CC1 [Example A51] | 10000 | 9000 | > 10000
O=C(CC12CC3CC(CC(C3)C1)C2)N[C@@H]1CCN(Cc2ccccc2)C1 [Example A52] | > 10000 | 4900 | 4000
O=C(CC12CC3CC(CC(C3)C1)C2)NCC(=O)NC1CCN(Cc2ccccc2)CC1 [Example A54] | > 10000 | 4000 | 10000
COC(=O)c1ccc(COc2ccccc2CN2CCC(NC(=O)CNC(=O)CC34CC5CC(CC(C5)C3)C4)CC2)cc1 [Example A55] | > 10000 | 2900 | 2600
O=C(CC12CC3CC(CC(C3)C1)C2)NCC(=O)N[C@@H]1CCN(Cc2ccccc2)C1 [Example A56] | > 10000 | 3100 | 10000
COC(=O)c1ccc(COc2ccccc2CN2CC3CC2CN3C(=O)CNC(=O)CC23CC4CC(CC(C4)C2)C3)cc1 (stereo not drawn) [Example A58] | > 10000 | 650 | 8000
NC1CCN(C(=O)C23CC4CC(C2)CC(c2ccccc2)(C4)C3)CC1 [Example A61] | > 10000 | 140 | 80
O=C(N1CC2CCNC2C1)C12CC3CC(C1)CC(c1ccccc1)(C3)C2 (stereo not drawn) [Example A62] | 30000 | 160 | 110

Structure (SMILES) | CC50 [1] [nM] | EC50 [2] [nM] | EC50 [3] [nM]
O=C(N1CCC2(CCNC2)C1)C12CC3CC(C1)CC(c1ccccc1)(C3)C2 (stereo not drawn) [Example A64] | > 10000 | 710 | 180
O=C(N1CC2CC1CN2)C12CC3CC(C1)CC(c1ccccc1)(C3)C2 (stereo not drawn) [Example A65] | > 10000 | 90 | 90
O=C(N1CCCNCC1)C12CC3CC(C1)CC(c1ccccc1)(C3)C2 [Example A66] | > 10000 | 160 | 100
COc1ccc(C23CC4CC(CC(C(=O)NC5CCNCC5)(C4)C2)C3)cc1 [Example A67] | > 10000 | 390 | 410
O=C(NC1CCNCC1)C12CC3CC(C1)CC(c1ccc(Cl)cc1)(C3)C2 [Example A69] | 22400 | 220 | 240
O=C(CC12CC3CC(C1)CC(c1ccccc1)(C3)C2)NC1CCNCC1 [Example A70] | > 50000 | 490 | 190
CC12CC3CC(C(=O)NC4CNC4)(C1)CC(c1ccccc1)(C3)C2 (stereo not drawn) [Example A72] | 17400 | 280 | 290
CC12CC3(C)CC(C(=O)NC4CCNCC4)(C1)CC(c1ccccc1)(C2)C3 [Example A73] | 13000 | 320 | 370
O=C(NC1CCNCC1)C12CC3CC(C1)CC(c1ccc(O)cc1)(C3)C2 [Example A74] | 14000 | 1720 | > 1000
O=C(NC1CCNCC1)C12CC3CC(C1)CC(c1ccc(F)cc1)(C3)C2 [Example A75] | 17700 | 300 | 300
CC12CC3CC(C(=O)N[C@H]4CC[C@@H](N)CC4)(C1)CC(c1ccccc1)(C3)C2 (stereo partly drawn) [Example A77] | 8700 | 120 | 220
CC12CC3CC(C(=O)NCCN)(C1)CC(c1ccccc1)(C3)C2 (stereo not drawn) [Example A79] | 4200 | 260 | 290
C[C@H]1CN(C(=O)C23CC4CC(C)(C2)CC(c2ccccc2)(C4)C3)CCN1 (stereo partly drawn) [Example A82] | 4500 | 130 | 160
C[C@H]1CNCCN1C(=O)C12CC3CC(C)(C1)CC(c1ccccc1)(C3)C2 (stereo partly drawn) [Example A83] | 12900 | 100 | 180
N[C@H]1CC[C@H](NC(=O)C2C3CC4CC2CC(c2ccccc2)(C4)C3)CC1 (stereo partly drawn) [Example A84] | 9000 | 146 | 110
C[C@@H]1CN(C(=O)C23CC4CC(C)(C2)CC(c2ccccc2)(C4)C3)C[C@H](C)N1 (stereo partly drawn) [Example A86] | 3900 | 155 | 180
N[C@H]1CC[C@H](NC(=O)C23CC4CC2CC(c2ccccc2)(C4)C3)CC1 (stereo partly drawn) [Example A87] | 1400 | 140 | 190
O=C(NC1CCNCC1)C12CC3CC1CC(c1ccccc1)(C3)C2 (stereo not drawn) [Example A88] | 12500 | 360 | 500

Reference: patent publication US12240857B2 (priority 2017, dated 2025)
